# Test results reported in ChEMBL document CHEMBL5579801, “Novel orexin receptor agonists based on arene- or pyridine-fused 1,3-dihydro-2H-imidazole-2-imines” (Bioorg Med Chem Lett, 2024).
# Columns and labels:
# HEK293 = assay: Cytotoxicity against human HEK293 cells upto 100 uM incubated for 3 days; type: toxicity, cell-based; details: hek293, 72 h, time 3 day
# [1] = Cmax in mouse brain at 5 mg/kg,iv administration; type: ADME, organism-based
# [2] = Tmax in mouse plasma at 5 mg/kg,iv administration; type: ADME, organism-based
# [3] = Tmax in mouse brain at 5 mg/kg,iv administration; type: ADME, organism-based
# [4] = AUClast in mouse plasma at 5 mg/kg,iv administration; type: ADME, organism-based
# [5] = Half life in mouse brain at 5 mg/kg,iv administration; type: ADME, organism-based
# [6] = Half life in mouse plasma at 5 mg/kg,iv administration; type: ADME, organism-based
# [7] = Cmax in mouse plasma at 5 mg/kg,iv administration; type: ADME, organism-based
# [8] = AUClast in mouse brain at 5 mg/kg,iv administration; type: ADME, organism-based; details: in vivo
# Orexin receptor type 2 = molecular target: T1, Orexin receptor type 2 (Homo sapiens, UniProt O43614); assay: Agonist activity at human OX2R expressed in human HEK293 cells co-transfected with human Galphaq assessed as accumulation of inositol phosphate by scintillation counter analysis
# T1 sequence (O43614 whole entry): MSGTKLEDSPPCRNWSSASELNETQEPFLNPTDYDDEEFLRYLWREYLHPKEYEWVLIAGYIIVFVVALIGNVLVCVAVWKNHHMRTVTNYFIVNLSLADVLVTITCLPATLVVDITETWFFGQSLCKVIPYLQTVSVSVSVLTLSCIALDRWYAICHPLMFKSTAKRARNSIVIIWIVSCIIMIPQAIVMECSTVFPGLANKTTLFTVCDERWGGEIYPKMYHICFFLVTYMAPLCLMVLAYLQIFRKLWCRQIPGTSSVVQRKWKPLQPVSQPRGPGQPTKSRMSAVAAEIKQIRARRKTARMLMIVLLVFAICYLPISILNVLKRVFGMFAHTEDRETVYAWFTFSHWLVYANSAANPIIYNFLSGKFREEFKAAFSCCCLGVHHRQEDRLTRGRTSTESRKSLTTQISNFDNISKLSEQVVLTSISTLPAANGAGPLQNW
# [9] = Ratio of Cmax in mouse brain to plasma at 5 mg/kg,iv administration; type: ADME, organism-based
# [10] = Ratio of AUC in mouse brain to plasma at 5 mg/kg,iv administration; type: ADME, organism-based; details: read-out: Ratio AUC
smiles,measurement,setting,value
Cc1ccc(C[C@@H](C(=O)N2CC(C#N)C2)n2c(=N)n(C(C)c3ccc(C)cc3)c3cccnc32)cc1 (some centres not stated),Activity,HEK293,Non-Toxic
same,Cmax,[1],218 ng/g
same,Tmax,[2],10 min
same,Tmax,[3],10 min
same,AUC(0-t),[4],518 ng·h/mL
same,half-life,[5],47 min
same,half-life,[6],40 min
same,Cmax,[7],651 ng/mL
same,AUClast,[8],12554 ng·min/g
Cc1ccc(C[C@@H](CNC(=O)c2ccco2)n2c(=N)n(Cc3ccc(C)cc3)c3ccccc32)cc1,EC50,Orexin receptor type 2,> 10 µM
COCCCOC[C@H](Cc1ccc(C)cc1)n1c(=N)n(Cc2ccc(C)cc2)c2ccccc21,EC50,Orexin receptor type 2,3.63 µM
Cc1ccc(C[C@@H](CNC(=O)CC(F)(F)F)n2c(=N)n(Cc3ccc(C)cc3)c3ccccc32)cc1,EC50,Orexin receptor type 2,6.46 µM
Cc1ccc(C[C@@H](CNC(=O)c2cccc(C)n2)n2c(=N)n(Cc3ccc(C)cc3)c3ccccc32)cc1,EC50,Orexin receptor type 2,> 10 µM
Cc1ccc(C[C@@H](CSC(C)C)n2c(=N)n(Cc3ccc(C)cc3)c3ccccc32)cc1,EC50,Orexin receptor type 2,5.37 µM
Cc1ccc(C[C@@H](CNC(=O)c2ncccc2C)n2c(=N)n(Cc3ccc(C)cc3)c3ccccc32)cc1,EC50,Orexin receptor type 2,> 10 µM
Cc1ccc(C[C@@H](CO)n2c(=N)n(Cc3ccc(C)cc3)c3ccc(C(F)(F)F)cc32)cc1,EC50,Orexin receptor type 2,> 10 µM
Cc1ccc(C[C@@H](CO)n2c(=N)n(Cc3ccc(C)cc3)c3cc(Cl)ccc32)cc1,EC50,Orexin receptor type 2,> 10 µM
CSC[C@H](Cc1ccc(C)cc1)n1c(=N)n(Cc2ccc(C)cc2)c2ccccc21,EC50,Orexin receptor type 2,2.34 µM
Cc1ccc(C[C@@H](CO)n2c(=N)n(Cc3ccc(C)cc3)c3ccc(C)cc32)cc1,EC50,Orexin receptor type 2,> 10 µM
Cc1ccc(C[C@@H](C[S+](C)[O-])n2c(=N)n(Cc3ccc(C)cc3)c3ccccc32)cc1 (some centres not stated),EC50,Orexin receptor type 2,7.08 µM
CCSC[C@H](Cc1ccc(C)cc1)n1c(=N)n(Cc2ccc(C)cc2)c2ccccc21,EC50,Orexin receptor type 2,3.98 µM
Cc1ccc(C[C@@H](CS(C)(=O)=O)n2c(=N)n(Cc3ccc(C)cc3)c3ccccc32)cc1,EC50,Orexin receptor type 2,4.47 µM
Cc1ccc(C[C@@H](COCCN(C)C)n2c(=N)n(Cc3ccc(C)cc3)c3ccccc32)cc1,EC50,Orexin receptor type 2,3.98 µM
Cc1ccc(C[C@@H](CNS(=O)(=O)C(F)F)n2c(=N)n(Cc3ccc(C)cc3)c3ccccc32)cc1,EC50,Orexin receptor type 2,6.46 µM
COC[C@H](Cc1ccc(C)cc1)n1c(=N)n(C(c2ccc(C)cc2)C(F)(F)F)c2ccccc21 (mixture of isomers),EC50,Orexin receptor type 2,1.41 µM
Cc1ccc(C[C@@H](CNC(=O)CO)n2c(=N)n(C(C)c3ccc(C)cc3)c3ccccc32)cc1 (mixture of isomers),EC50,Orexin receptor type 2,0.661 µM
COC[C@H](Cc1ccc(C)cc1)n1c(=N)n(C(c2ccc(C)cc2)C2CCC2)c2ccccc21 (mixture of isomers),EC50,Orexin receptor type 2,> 10 µM
Cc1ccc(C[C@@H](C(=O)N2CC(C#N)C2)n2c(=N)n(C(C)c3ccc(C)cc3)c3ccccc32)cc1 (mixture of isomers),Activity,HEK293,Non-Toxic
same,Cmax,[1],53.2 ng/g
same,EC50,Orexin receptor type 2,0.661 µM
same,Tmax,[2],10 min
same,Tmax,[3],10 min
same,Kp,[9],0.24
same,AUC(0-t),[4],295 ng·h/mL
same,half-life,[5],234 min
same,half-life,[6],185 min
same,Cmax,[7],225 ng/mL
same,AUClast,[8],8586 ng·min/g
same,Kp,[10],0.48
Cc1ccc(C[C@@H](CNC(=O)CO)n2c(=N)n(C(c3ccc(C)cc3)C(C)C)c3ccccc32)cc1 (mixture of isomers),EC50,Orexin receptor type 2,1.95 µM
Cc1ccc(C[C@@H](C(=O)N2CC3(CNC3)C2)n2c(=N)n(C(C)c3ccc(C)cc3)c3ccccc32)cc1 (mixture of isomers),EC50,Orexin receptor type 2,> 10 µM
CCC(=O)NCC(Cc1ccc(C)cc1)n1c(=N)n(Cc2ccc(C)cc2)c2ccccc21 (racemic),EC50,Orexin receptor type 2,8.13 µM
Cc1ccc(CC(CNC(=O)C2CC2)n2c(=N)n(Cc3ccc(C)cc3)c3ccccc32)cc1 (racemic),EC50,Orexin receptor type 2,5.25 µM
Cc1ccc(CC(CNC=O)n2c(=N)n(Cc3ccc(C)cc3)c3ccccc32)cc1 (racemic),EC50,Orexin receptor type 2,2.45 µM
Cc1ccc(CC(CNC(=O)Cc2ccccc2)n2c(=N)n(Cc3ccc(C)cc3)c3ccccc32)cc1 (racemic),EC50,Orexin receptor type 2,> 10 µM
Cc1ccc(CC(CNC(=O)CN(C)C)n2c(=N)n(Cc3ccc(C)cc3)c3ccccc32)cc1 (racemic),EC50,Orexin receptor type 2,3.31 µM
Cc1ccc(CC(CNC(=O)c2ccccc2)n2c(=N)n(Cc3ccc(C)cc3)c3ccccc32)cc1 (racemic),EC50,Orexin receptor type 2,> 10 µM
Cc1ccc(CC(CNC(=O)N(C)C)n2c(=N)n(Cc3ccc(C)cc3)c3ccccc32)cc1 (racemic),EC50,Orexin receptor type 2,4.17 µM
Cc1ccc(CC(CNC(=O)Cc2cccnc2)n2c(=N)n(Cc3ccc(C)cc3)c3ccccc32)cc1 (racemic),EC50,Orexin receptor type 2,4.68 µM
Cc1ccc(CC(CNS(=O)(=O)C(F)(F)F)n2c(=N)n(Cc3ccc(C)cc3)c3ccccc32)cc1 (racemic),EC50,Orexin receptor type 2,> 10 µM
Cc1ccc(CC(CNC(=O)CCCO)n2c(=N)n(Cc3ccc(C)cc3)c3ccccc32)cc1 (racemic),EC50,Orexin receptor type 2,> 10 µM
Cc1ccc(CC(CNC(=O)C(F)(F)F)n2c(=N)n(Cc3ccc(C)cc3)c3ccccc32)cc1 (racemic),EC50,Orexin receptor type 2,6.61 µM
COC(=O)NCC(Cc1ccc(C)cc1)n1c(=N)n(Cc2ccc(C)cc2)c2ccccc21 (racemic),EC50,Orexin receptor type 2,1.86 µM
Cc1ccc(CC(CNC(=O)Cc2ncccn2)n2c(=N)n(Cc3ccc(C)cc3)c3ccccc32)cc1 (racemic),EC50,Orexin receptor type 2,> 10 µM
Cc1ccc(CC(CNC(=O)CN)n2c(=N)n(Cc3ccc(C)cc3)c3ccccc32)cc1 (racemic),EC50,Orexin receptor type 2,> 10 µM
CCOC(=O)NCC(Cc1ccc(C)cc1)n1c(=N)n(Cc2ccc(C)cc2)c2ccccc21 (racemic),EC50,Orexin receptor type 2,2.69 µM
Cc1ccc(CC(CNC(=O)Cc2ccncc2)n2c(=N)n(Cc3ccc(C)cc3)c3ccccc32)cc1 (racemic),EC50,Orexin receptor type 2,> 10 µM
COC[C@H](Cc1ccc(C)cc1)n1c(=N)n(C(c2ccc(C)cc2)C2CC2)c2ccccc21 (stereo in doubt; 61b),Activity,HEK293,Non-Toxic
same,Cmax,[1],143 ng/g
same,EC50,Orexin receptor type 2,0.603 µM
same,Tmax,[2],10 min
same,Tmax,[3],30 min
same,Kp,[9],0.17
same,AUC(0-t),[4],986 ng·h/mL
same,half-life,[5],134 min
same,half-life,[6],74 min
same,Cmax,[7],841 ng/mL
same,AUClast,[8],38969 ng·min/g
same,Kp,[10],0.66
COC[C@H](Cc1ccc(C)cc1)n1c(=N)n(C(c2ccc(C)cc2)C2CC2)c2ccccc21 (stereo in doubt; 61c),EC50,Orexin receptor type 2,1.95 µM
COCOC[C@H](Cc1ccc(C)cc1)n1c(=N)n(C(C)c2ccc(C)cc2)c2cccnc21 (stereo in doubt; 62b),EC50,Orexin receptor type 2,5.75 µM
COCOC[C@H](Cc1ccc(C)cc1)n1c(=N)n(C(C)c2ccc(C)cc2)c2cccnc21 (stereo in doubt; 62c),Activity,HEK293,Non-Toxic
same,Cmax,[1],2460 ng/g
same,EC50,Orexin receptor type 2,0.933 µM
same,Tmax,[2],10 min
same,Tmax,[3],10 min
same,Kp,[9],3.32
same,AUC(0-t),[4],673 ng·h/mL
same,half-life,[5],34 min
same,half-life,[6],48 min
same,Cmax,[7],741 ng/mL
same,AUClast,[8],100501 ng·min/g
same,Kp,[10],2.49
COCCOC[C@H](Cc1ccc(C)cc1)n1c(=N)n(C(C)c2ccc(C)cc2)c2cccnc21 (stereo in doubt; 63b),EC50,Orexin receptor type 2,4.68 µM
COCCOC[C@H](Cc1ccc(C)cc1)n1c(=N)n(C(C)c2ccc(C)cc2)c2cccnc21 (stereo in doubt; 63c),EC50,Orexin receptor type 2,0.339 µM
Cc1ccc(C[C@@H](CNC(=O)CO)n2c(=N)n(C(C)c3ccc(C)cc3)c3ccccc32)cc1 (stereo in doubt; 65b),EC50,Orexin receptor type 2,1.51 µM
Cc1ccc(C[C@@H](CNC(=O)CO)n2c(=N)n(C(C)c3ccc(C)cc3)c3ccccc32)cc1 (stereo in doubt; 65c),Activity,HEK293,Non-Toxic
same,Cmax,[1],15.3 ng/g
same,EC50,Orexin receptor type 2,0.437 µM
same,Tmax,[2],10 min
same,Tmax,[3],30 min
same,Kp,[9],0.026
same,AUC(0-t),[4],691 ng·h/mL
same,half-life,[5],729 min
same,half-life,[6],230 min
same,Cmax,[7],600 ng/mL
same,AUClast,[8],11291 ng·min/g
same,Kp,[10],0.27
Cc1ccc(C[C@@H](CNC(=O)CO)n2c(=N)n(C(C)c3ccc(C)cc3)c3cccnc32)cc1 (stereo in doubt; 68b),EC50,Orexin receptor type 2,> 10 µM
Cc1ccc(C[C@@H](CNC(=O)CO)n2c(=N)n(C(C)c3ccc(C)cc3)c3cccnc32)cc1 (stereo in doubt; 68c),EC50,Orexin receptor type 2,1.32 µM
Cc1ccc(C[C@@H](COCCC#N)n2c(=N)n(C(C)c3ccc(C)cc3)c3cccnc32)cc1 (stereo in doubt; 69b),EC50,Orexin receptor type 2,5.62 µM
Cc1ccc(C[C@@H](COCCC#N)n2c(=N)n(C(C)c3ccc(C)cc3)c3cccnc32)cc1 (stereo in doubt; 69c),EC50,Orexin receptor type 2,0.372 µM
